From US20260345595A1, “NOVEL FLUORENE DERIVATIVE COMPOUND AND USE THEREOF” (JD BIOSCIENCE INC., priority 2022, published 2026)

Test system: PDHE1α S293
Assay: In vitro PDH S293 phosphorylation inhibition, Western blot in HEK293 cells
Assay type: cell-based
Conditions: Homo sapiens, 5 hours
Description: HEK293 cells, which are human embryonic kidney cells, were seeded at a density of 2×10^6 in a 60 mm dish, and cultured for 24 hours. After replacing the medium with a medium comprising 0.5% FBS, the compounds prepared according to Examples 1 to 54 were treated at various concentrations. 5 hours later, the cells were scraped off and collected into a 15 ml conical tube and centrifuged at 1500 rpm for 10 minutes. The supernatant was discarded, the resultant was washed with 1×PBS, and transferred to a 1.5 mL e-tube, followed by centrifugation at 10,000 rpm for 5 minutes. The supernatant was discarded again, a lysis buffer was added, and the cells were lysed on ice for 30 minutes. The cells were vortexed every 10 minutes to completely lyse, and centrifuged again at 10,000 rpm for 15 minutes at 4 °C., and the supernatant was collected. The protein in the supernatant was quantified using BCA technique, and the sample buffer was added to 20 μg of protein and allowed to react at 70 °C. for 5 minutes. The expression of PDHE1α S232, S293, S300, and total PDHE1α proteins was detected by Western blot, and the resulting PDH S293 phosphorylation inhibition is shown in Table 6.

| SMILES | inhibition at 1 µM [%] |
| --- | --- |
| CC(C(=O)NNc1ncc(C(F)(F)F)cc1Cl)n1cc(-c2cc(F)cc3c2-c2ccccc2C3(O)C(F)(F)F)cn1 (centres unmarked) [Compound 32, N′-(3-chloro-5-(trifluoromethyl)pyridin-2-yl)-2-(4-(2-fluoro-9-hydroxy-9-(trifluoromethyl)-9H-fluoren-4-yl)-1H-pyrazol-1-yl)propanehydrazide] | ≥ 50 |
| COc1cc(-c2cnn(C(C)C(=O)NNc3ncc(C(F)(F)F)cc3Cl)c2)c2c(c1)C(O)(C(F)(F)F)c1ccccc1-2 (centres unmarked) [Compound 33, N′-(3-chloro-5-(trifluoromethyl)pyridin-2-yl)-2-(4-(9-hydroxy-2-methoxy-9-(trifluoromethyl)-9H-fluoren-4-yl)-1H-pyrazol-1-yl)propanehydrazide] | ≥ 50 |
